Holding throughout (type): biochemical
The subject of test [1] is human plasma. Nature of the test: Human plasma anticoagulation, activated partial thromboplastin time (APTT). How it is done: (§1) Fibrinogen is prepared from in-date ACD human blood as the fraction I-2 according to previous procedures and specifications. Smith, Biochem. […] Coagulation reagents ACTIN, Thromboplastin, and Human plasma are from Baxter Healthcare Corp., Dade Division, Miami, Fla. Bovine thrombin from Parke-Davis (Detroit, Mich.) is used for coagulation assays in plasma. Coagulation assay procedures are as previously described. […] A CoAScreener coagulation instrument (American LABor, Inc.) is used for all coagulation assay measurements. […] The compounds of formula I are added to human or animal plasma over a wide range of concentrations to determine prolongation effects on the APTT, PT, and TT assays. Linear extrapolations are performed to estimate the concentrations required to double the clotting time for each assay.

The next test has as its target T1, Bovine trypsin (Bos taurus, UniProt P00760).
T1 construct: Bovine trypsin is purchased from Worthington Biochemicals; purchased Worthington Biochemicals, Freehold, N.J
T1 sequence (P00760 24-246): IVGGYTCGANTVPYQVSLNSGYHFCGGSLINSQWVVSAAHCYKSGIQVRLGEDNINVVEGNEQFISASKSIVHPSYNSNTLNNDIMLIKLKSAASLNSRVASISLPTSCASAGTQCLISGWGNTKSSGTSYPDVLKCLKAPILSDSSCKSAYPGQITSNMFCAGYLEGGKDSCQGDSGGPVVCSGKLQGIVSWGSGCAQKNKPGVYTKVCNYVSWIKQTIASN
Kind of test: Serine protease inhibition (Kass), trypsin. The protocol:
(§2) By substantially following the procedures described above for human thrombin, and using other human blood coagulation system serine proteases and using fibrinolytic system serine proteases, with the appropriate chromogenic substrates, identified below, the selectivity of the compounds of the present invention with respect to the coagulation factor serine proteases and to the fibronolytic serine proteases are evaluated as well as their substantial lack of interference with human plasma clot fibrinolysis.
(§3) Human factors X, Xa, IXa, XIa, and XIIa are purchased from Enzyme Research Laboratories, South Bend, Ind.; human urokinase from Leo Pharmaceuticals, Denmark; and recombinant activated Protein C (aPC) is prepared at Eli Lilly and Co. substantially according to U.S. Pat. No. 4,981,952 incorporated by reference herein in its entirety. Chromogenic substrates: N-Benzoyl-Ile-Glu-Gly-Arg-p-nitroanilide (for factor Xa); N-Cbz-D-Arg-Gly-Arg-p-nitroanilide (for factor IXa assay as the factor Xa substrate); Pyroglutamyl-Pro-Arg-p-nitroanilide (for Factor XIa and for aPC); H-D-Pro-Phe-Arg-p-nitroanilide (for factor XIIa); and Pyroglutamyl-Gly-Arg-p-nitroanilide (for urokinase); are purchased from KabiVitrum, Stockholm, Sweden, or from Midwest Biotech, Fishers, Ind. Bovine trypsin is purchased from Worthington Biochemicals, Freehold, N.J., and human plasma kallikrein from Kabi Vitrum, Stockholm, Sweden. Chromogenic substrate H-D-Pro-Phe-Arg-p-nitroanilide for plasma kallikrein is purchased from Kabi Vitrum, Stockholm, Sweden. N-Benzoyl-Phe-Val-Arg-p-nitroanilide, the substrate for human thrombin and for trypsin, is synthesized according to procedures described above for the compounds of the present invention, using known methods of peptide coupling from commercially available reactants, or purchaed from Midwest Biotech, Fishers, Ind.

Test [2] relates to human plasma. Kind of test: Human plasma anticoagulation, prothrombin time (PT). The protocol: as §1
Test [3] deals with T2, tissue plasminogen activator (t-PA) (Homo sapiens, UniProt P00750).
T2 construct: purchased American Diagnostica, Greenwich, Conn
Kind of test: Serine protease inhibition (Kass), t-PA. The protocol:
as §2
(§4) Human plasmin is purchased from Boehringer Mannheim, Indianapolis, Ind.; nt-PA is purchased as single chain activity reference from American Diagnostica, Greenwich, Conn.; modified-t-PA6 (mt-PA6) is prepared at Eli Lilly and Company by procedure known in the art (See, Burck, et al., J. Biol. Chem., 265, […] (1990). Plasmin chromogenic substrate H-D-Val-Leu-Lys-p-nitroanilide and tissue plasminogen activator (t-PA) substrate H-D-Ile-Pro-Arg-p-nitroanilide are purchased from Kabi Vitrum, Stockholm, Sweden.

The test system of test [4] is human plasma. Nature of the test: Human plasma anticoagulation, thrombin time (TT). The protocol:
as §1

For the next test, the target named is human thrombin (Homo sapiens, UniProt P00734). Kind of test: Thrombin amidase inhibition (Kass), chromogenic substrate. In short, it runs like this: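 Kass, in liter per mole, was averaged over several compound concentrations, using free thrombin from a rate standard curve and free inhibitor as added minus bound. Hydrolysis of chromogenic substrate (0.25 mg/ml solution) was monitored at 405 nm with human thrombin (8 NIH units/ml solution) in Tris-NaCl buffer pH 7.4, compound in 50% aqueous methanol.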

The target in the next test is T3, Human plasmin (Homo sapiens, UniProt P00747).
T3 construct: Human plasmin is purchased from Boehringer Mannheim; purchased Boehringer Mannheim, Indianapolis, Ind
Nature of the test: Serine protease inhibition (Kass), plasmin. How it is done: as §2, §4

In a further test the target is T4, factor Xa (Homo sapiens, UniProt P00742).
T4 construct: Human factors X, Xa, IXa, XIa, and XIIa are purchased from Enzyme Research Laboratories; purchased Enzyme Research Laboratories, South Bend, Ind
Kind of test: Serine protease inhibition (Kass), factor Xa. The protocol: as §2, §3

Molecules are shown by their SMILES.

T2 sequence (P00750 36-562): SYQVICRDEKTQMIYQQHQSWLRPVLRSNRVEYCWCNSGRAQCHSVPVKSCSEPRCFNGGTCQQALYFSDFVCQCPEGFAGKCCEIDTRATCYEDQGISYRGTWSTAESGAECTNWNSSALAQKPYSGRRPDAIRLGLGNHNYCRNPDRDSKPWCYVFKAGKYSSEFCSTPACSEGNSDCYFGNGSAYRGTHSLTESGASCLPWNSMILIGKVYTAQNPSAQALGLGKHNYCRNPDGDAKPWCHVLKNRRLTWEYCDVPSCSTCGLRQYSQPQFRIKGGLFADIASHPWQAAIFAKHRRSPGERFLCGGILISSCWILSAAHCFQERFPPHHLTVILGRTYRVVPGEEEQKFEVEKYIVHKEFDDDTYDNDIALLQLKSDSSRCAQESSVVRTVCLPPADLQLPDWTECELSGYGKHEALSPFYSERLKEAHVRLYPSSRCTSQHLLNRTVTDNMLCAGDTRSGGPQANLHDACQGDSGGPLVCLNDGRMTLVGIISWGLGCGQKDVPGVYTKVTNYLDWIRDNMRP
T3 sequence (P00747 581-810 limits assumed): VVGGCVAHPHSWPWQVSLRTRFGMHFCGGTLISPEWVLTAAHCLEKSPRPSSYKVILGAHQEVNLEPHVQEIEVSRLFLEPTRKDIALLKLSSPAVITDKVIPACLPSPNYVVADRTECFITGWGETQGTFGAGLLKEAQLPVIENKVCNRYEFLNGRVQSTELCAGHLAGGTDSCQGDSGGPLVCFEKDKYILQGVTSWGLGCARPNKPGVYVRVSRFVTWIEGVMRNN
T3 sequence (P00747 97-580 partner limits assumed): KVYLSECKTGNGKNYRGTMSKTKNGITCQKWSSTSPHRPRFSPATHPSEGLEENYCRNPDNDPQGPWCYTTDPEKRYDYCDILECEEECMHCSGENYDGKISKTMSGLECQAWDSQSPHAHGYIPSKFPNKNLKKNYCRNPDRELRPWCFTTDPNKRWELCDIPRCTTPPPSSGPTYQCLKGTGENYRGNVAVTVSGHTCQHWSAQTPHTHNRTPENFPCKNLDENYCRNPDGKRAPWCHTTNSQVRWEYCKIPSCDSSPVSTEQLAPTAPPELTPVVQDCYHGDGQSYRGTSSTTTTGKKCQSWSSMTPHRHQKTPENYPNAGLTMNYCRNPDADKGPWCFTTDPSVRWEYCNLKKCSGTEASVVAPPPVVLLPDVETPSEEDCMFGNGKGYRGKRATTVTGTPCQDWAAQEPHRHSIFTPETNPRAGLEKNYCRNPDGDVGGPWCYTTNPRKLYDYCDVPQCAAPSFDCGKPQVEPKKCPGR
T4 sequence (P00742 235-488 limits assumed): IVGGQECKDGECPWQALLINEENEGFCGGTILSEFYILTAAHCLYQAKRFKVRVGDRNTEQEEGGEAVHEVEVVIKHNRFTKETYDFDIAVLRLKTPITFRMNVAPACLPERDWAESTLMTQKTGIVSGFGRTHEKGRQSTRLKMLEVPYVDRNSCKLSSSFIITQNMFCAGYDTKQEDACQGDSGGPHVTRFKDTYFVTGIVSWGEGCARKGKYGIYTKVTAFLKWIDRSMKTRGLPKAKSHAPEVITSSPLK
T4 sequence (P00742 41-179 partner limits assumed): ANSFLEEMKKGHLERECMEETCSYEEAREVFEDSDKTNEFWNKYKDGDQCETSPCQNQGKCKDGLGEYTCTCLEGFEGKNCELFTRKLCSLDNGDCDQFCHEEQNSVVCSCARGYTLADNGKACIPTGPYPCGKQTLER

Turning to `CCS(=O)(=O)NC1(C(=O)N2CCC[C@H]2C(=O)N[C@H](C=O)CCCNC(=N)N)CCCCC1.Cl` [Example 31, 1-(ethylsulfonylamino)cyclohexoyl-L-prolinyl-L-arginine aldehyde hydrochloride], in the test with human plasma [1], the “2 × Clotting time APTT” value was 12,000 ng/mL. The “Kass Trypsin” value on Bovine trypsin came to 0.42 L/mol × 10^6. Further, the “2 × Clotting time PT” value in the test with human plasma [2] is recorded as 11,000 ng/mL. The “Kass t-PA” value in test [3] turned out to be 0.00034 L/mol × 10^6. Further, the “2 × Clotting time TT” value with human plasma [4] is 300 ng/mL. In addition, the “Kass Human Thrombin” value on human thrombin was determined as 3.2 L/mol × 10^6. Moreover, the “Kass Plasmin” value at Human plasmin stood at 0.010 L/mol × 10^6. Moreover, the “Kass Xa” value on factor Xa came out at 0.036 L/mol × 10^6.
Turning to `CCCC[C@](Cc1ccccc1)(NC(=O)OCC)C(=O)N1CCC[C@H]1C(=O)N[C@H](C=O)CCCNC(=N)N.Cl` [Example 39, N-ethoxycarbonyl-D-phenylalanyl(αn-butyl)-L-prolinyl-L-arginine aldehyde hydrochloride], the “2 × Clotting time APTT” value with human plasma [1] is 3,400 ng/mL. In addition, the “Kass Trypsin” value on Bovine trypsin amounted to 21 L/mol × 10^6. Moreover, the “2 × Clotting time PT” value in the test with human plasma [2] is given as 3,000 ng/mL. Moreover, in test [3], the “Kass t-PA” value is less than 0.001 L/mol × 10^6. Further, in the test on human plasma [4], the “2 × Clotting time TT” value was 160 ng/mL. Moreover, the “Kass Human Thrombin” value on human thrombin stood at 66 L/mol × 10^6. In addition, the “Kass Plasmin” value on Human plasmin is 0.066 L/mol × 10^6. On factor Xa, the “Kass Xa” value is reported as 0.095 L/mol × 10^6.
For the molecule `Cl.Cl.Cn1c(C(=O)N[C@](C)(Cc2ccccc2)C(=O)N2CCC[C@H]2C(=O)N[C@H](C=O)CCCNC(=N)N)cc2ccccc21` [Example 30, N-(1-methylindolyl-2-carbonyl)-D-phenylalanyl(α-methyl)-L-prolinyl-L -arginine aldehyde dihydrochloride], the “2 × Clotting time APTT” value with human plasma [1] was 2,800 ng/mL. Also, at Bovine trypsin, the “Kass Trypsin” value turned out to be 1.3 L/mol × 10^6. The “2 × Clotting time PT” value in the test with human plasma [2] is given as 4,200 ng/mL. Also, the “Kass t-PA” value in test [3] worked out at 0.0022 L/mol × 10^6. Moreover, the “2 × Clotting time TT” value in the test with human plasma [4] is 220 ng/mL. Moreover, at human thrombin, the “Kass Human Thrombin” value was found to be 25 L/mol × 10^6. In addition, the “Kass Plasmin” value at Human plasmin is listed as 0.0083 L/mol × 10^6. For the same molecule, the “Kass Xa” value at factor Xa amounted to 0.013 L/mol × 10^6.
For the molecule `Cl.Cn1c(C(=O)NC2(C(=O)N3CCC[C@H]3C(=O)N[C@H](C=O)CCCNC(=N)N)CCCCC2)cc2ccccc21` [Example 32, 1-(1-methylindolyl-2-carbonylamino)cyclohexoyl-L-prolinyl-L-arginine aldehyde hydrochloride], in the test on human plasma [1], the “2 × Clotting time APTT” value was 11,000 ng/mL. For the same molecule, the “Kass Trypsin” value on Bovine trypsin is 0.45 L/mol × 10^6. Also, the “2 × Clotting time PT” value in the test on human plasma [2] is 9,200 ng/mL. Further, the “Kass t-PA” value in test [3] is 0.0011 L/mol × 10^6. The “2 × Clotting time TT” value with human plasma [4] was 1,000 ng/mL. Further, the “Kass Human Thrombin” value at human thrombin is on record as 5.7 L/mol × 10^6. Also, on Human plasmin, the “Kass Plasmin” value is 0.0071 L/mol × 10^6. Moreover, at factor Xa, the “Kass Xa” value is recorded as 0.024 L/mol × 10^6.
For the molecule `Cl.Cn1c(C(=O)NC(C)(Cc2ccccc2)C(=O)N2CCC[C@H]2C(=O)N[C@H](C=O)CCCNC(=N)N)cc2ccccc21` (stereo partly drawn) [Example 34, N-(1-methylindolyl-2carbonyl)phenylalanyl(αmethyl)-L-prolinyl-L-argi nine aldehyde hydrochloride], the “2 × Clotting time APTT” value in the test with human plasma [1] is 21,000 ng/mL. In addition, the “Kass Trypsin” value at Bovine trypsin is given as 0.18 L/mol × 10^6. For the same molecule, the “2 × Clotting time PT” value in the test on human plasma [2] was 37,000 ng/mL. Also, the “Kass t-PA” value in test [3] was 0.009 L/mol × 10^6. Besides, the “2 × Clotting time TT” value in the test with human plasma [4] was 1,800 ng/mL. Further, at human thrombin, the “Kass Human Thrombin” value turned out to be 2.8 L/mol × 10^6. For the same molecule, the “Kass Plasmin” value at Human plasmin was 0.001 L/mol × 10^6. The “Kass Xa” value on factor Xa worked out at 0.002 L/mol × 10^6.
On to `CCOC(=O)N[C@@H](Cc1ccccc1)C(=O)N1CCC[C@@]1(C)C(=O)N[C@H](C=O)CCCNC(=N)N.Cl` [Example 29, N-ethoxycarbonyl-phenylalanyl(αmethyl)-L-prolinyl-L-arginine aldehyde hydrochloride], for which the “2 × Clotting time APTT” value in the test with human plasma [1] is listed as 5,400 ng/mL. The “Kass Trypsin” value on Bovine trypsin turned out to be 1.7 L/mol × 10^6. The “2 × Clotting time PT” value with human plasma [2] is recorded as 6,100 ng/mL. Besides, the “Kass t-PA” value in test [3] is on record as 0.00072 L/mol × 10^6. Further, the “2 × Clotting time TT” value in the test on human plasma [4] is listed as 190 ng/mL. Also, the “Kass Human Thrombin” value at human thrombin is 5.0 L/mol × 10^6. Besides, the “Kass Plasmin” value at Human plasmin is on record as 0.020 L/mol × 10^6. Moreover, the “Kass Xa” value at factor Xa was 0.025 L/mol × 10^6.
Take `Cl.N=C(N)NCCC[C@@H](C=O)NC(=O)[C@@H]1CCCN1C(=O)[C@@H](CC1CCCCC1)NC(=O)c1cc2ccccc2cn1` [Example 50, N-(isoquinolinyl-2-carbonyl)-D-cyclohexylalanyl-L-Prolinyl-L-Arginine Aldehyde Hydrochloride]: in the test with human plasma [1], the “2 × Clotting time APTT” value is recorded as 1,400 ng/mL. Besides, the “Kass Trypsin” value at Bovine trypsin worked out at 2.5 L/mol × 10^6. The “2 × Clotting time PT” value with human plasma [2] was 2,700 ng/mL. Moreover, the “Kass t-PA” value in test [3] is 0.088 L/mol × 10^6. In the test on human plasma [4], the “2 × Clotting time TT” value was 97 ng/mL. The “Kass Human Thrombin” value at human thrombin was 200 L/mol × 10^6. The “Kass Plasmin” value on Human plasmin is reported as 2.5 L/mol × 10^6. For the same molecule, on factor Xa, the “Kass Xa” value is 0.83 L/mol × 10^6.
As to `CCOC(=O)N[C@](CC)(Cc1ccccc1)C(=O)N1CCC[C@H]1C(=O)N[C@H](C=O)CCCNC(=N)N.Cl` [Example 35, N-ethoxycarbonyl-D-phenylalanyl(αethyl)-L-prolinyl-L-arginine aldehyde hydrochloride], the “2 × Clotting time APTT” value in the test with human plasma [1] is given as 3,200 ng/mL. In addition, the “Kass Trypsin” value at Bovine trypsin turned out to be 4.9 L/mol × 10^6. Besides, the “2 × Clotting time PT” value with human plasma [2] was 3,300 ng/mL. Further, the “Kass t-PA” value in test [3] amounted to 0.002 L/mol × 10^6. Moreover, the “2 × Clotting time TT” value in the test on human plasma [4] was 93 ng/mL. For the same molecule, the “Kass Human Thrombin” value on human thrombin worked out at 57 L/mol × 10^6. Besides, the “Kass Plasmin” value at Human plasmin is 0.12 L/mol × 10^6. Also, the “Kass Xa” value at factor Xa is given as 0.036 L/mol × 10^6.
For the molecule `COCC(=O)N[C@H](Cc1ccccc1)C(=O)N1CCC[C@H]1C(=O)N[C@H](C=O)CCCNC(=N)N.Cl` [Example 68, N-(methoxyacetyl)-D-phenylalanyl-L-Prolinyl-L-Arginine Aldehyde Hydrochloride], the “2 × Clotting time APTT” value with human plasma [1] amounted to 440 ng/mL. For the same molecule, the “Kass Trypsin” value on Bovine trypsin was found to be 57 L/mol × 10^6. Besides, the “2 × Clotting time PT” value in the test with human plasma [2] is 1,200 ng/mL. The “Kass t-PA” value in test [3] turned out to be 0.30 L/mol × 10^6. For the same molecule, in the test on human plasma [4], the “2 × Clotting time TT” value worked out at 38 ng/mL. Besides, the “Kass Human Thrombin” value on human thrombin is listed as 33 L/mol × 10^6. Also, the “Kass Plasmin” value at Human plasmin is 3.8 L/mol × 10^6. The “Kass Xa” value on factor Xa is given as 0.29 L/mol × 10^6.

The values are drawn from patent US5436229A, “Bisulfite adducts of arginine aldehydes” (Eli Lilly and Company, priority 1994, dated 1995).
